ChEMBL document CHEMBL1811878, “Heteroatom-substituted analogues of orphan nuclear receptor small heterodimer partner ligand and apoptosis inducer (E)-4-[3-(1-Adamantyl)-4-hydroxyphenyl]-3-chlorocinnamic acid” (J Med Chem, 2011)
≈ marks a conversion by molar mass, not a printed value. Calls of active or inactive are those of the source. The rule behind the calls is not given here.

Key:
SK-BR-3 [1] = test: Induction of apoptosis in estrogen receptor-deficient human SKBR3 cells assessed as DNA fragmentation at 0.5 uM by acridine orange staining; type: functional, cell-based; conditions: TDE = time-dependent effect
A549 [2] = test: Induction of apoptosis in human A549 cells assessed as decrease in ATP level at 5 uM after 72 hrs by luminescence assay; type: functional; parameters: scale not given: the % may be the effect or the level left
HT-29 [3] = test: Induction of apoptosis in human HT-29 cells assessed as decrease in ATP level at 10 uM after 72 hrs by luminescence assay; type: functional; parameters: scale not given: the % may be the effect or the level left
KG-1 [4] = test: Induction of apoptosis in human KG1 cells assessed as DNA fragmentation at 5 uM after 48 hrs by acridine orange staining method; type: functional
MDA-MB-231 [5] = test: Growth inhibition of retinoid-resistant human MDA-MB-231 cells expressing p53 and ERbeta gene after 48 hrs by MTT assay; type: functional, cell-based
A549 [6] = test: Induction of apoptosis in human A549 cells assessed as decrease in ATP level at 10 uM after 72 hrs by luminescence assay; type: functional, cell-based
KG-1 [7] = test: Growth inhibition in human KG1 cells expressing p53 gene at 0.1 to 1 uM after 48 hrs by MTT assay; type: functional, cell-based
KG-1 [8] = test: Growth inhibition in human KG1 cells expressing p53 gene at 5 uM after 48 hrs by MTT assay; type: functional; conditions: KG-1, 48 h, read-out: GI
MDA-MB-231 [9] = test: Growth inhibition of retinoid-resistant human MDA-MB-231 cells expressing p53 and ERbeta gene at 0.1 to 1 uM by MTT assay; type: functional, cell-based; conditions: TDE = time-dependent effect
MDA-MB-231 [10] = test: Growth inhibition of retinoid-resistant human MDA-MB-231 cells expressing p53 and ERbeta gene at 1 uM after 48 hrs by MTT assay; type: functional; conditions: MDA-MB-231, 48 h, read-out: GI
MDA-MB-231 [11] = test: Induction of apoptosis in retinoid-resistant human MDA-MB-231 cells expressing p53 and ERbeta gene assessed as DNA fragmentation after 48 hrs by acridine orange staining method; type: functional, cell-based
HT-29 [12] = test: Induction of apoptosis in human HT-29 cells assessed as decrease in ATP level at 10 uM after 72 hrs by luminescence assay relative to control; type: functional; parameters: scale not given: the % may be the effect or the level left
[13] = Aqueous solubility of the compound in water at pH 5 by UV spectrophotometric analysis; type: physicochemical
MDA-MB-231 [14] = test: Induction of apoptosis in retinoid-resistant human MDA-MB-231 cells expressing p53 and ERbeta gene assessed as DNA fragmentation at 1 uM after 48 hrs by acridine orange staining method; type: functional
SK-BR-3 [15] = test: Induction of apoptosis in human SKBR3 cells assessed as DNA fragmentation at 1 uM after 72 hrs by acridine orange staining; type: functional
MDA-MB-231 [16] = test: Induction of apoptosis in retinoid-resistant human MDA-MB-231 cells expressing p53 and ERbeta gene assessed as DNA fragmentation at 1 uM after 24 hrs by acridine orange staining method; type: functional
PC-3 [17] = test: Induction of apoptosis in human PC3 cells assessed as decrease in ATP level at 5 uM after 72 hrs by luminescence assay; type: functional; parameters: scale not given: the % may be the effect or the level left
PC-3 [18] = test: Induction of apoptosis in human PC3 cells assessed as decrease in ATP level at 10 uM after 72 hrs by luminescence assay; type: functional, cell-based
SK-BR-3 [19] = test: Induction of apoptosis in estrogen receptor-deficient human SKBR3 cells assessed as DNA fragmentation at 0.5 uM after 48 hrs by acridine orange staining; type: functional
[20] = Aqueous solubility of the compound in PBS at pH 7.2 by UV spectrophotometric analysis; type: physicochemical; conditions: PBS, read-out: solubility
A549 [21] = test: Induction of apoptosis in human A549 cells assessed as decrease in ATP level after 72 hrs by luminescence assay; type: functional, cell-based
MDA-MB-231 [22] = test: Growth inhibition of retinoid-resistant human MDA-MB-231 cells expressing p53 and ERbeta gene at 1 uM after 24 hrs by MTT assay; type: functional; conditions: MDA-MB-231, 24 h, read-out: GI
MDA-MB-231 [23] = test: Induction of apoptosis in retinoid-resistant human MDA-MB-231 cells expressing p53 and ERbeta gene assessed as DNA fragmentation at 0.1 to 1 uM by acridine orange staining method; type: functional, cell-based; conditions: TDE = time-dependent effect
PC-3 [24] = test: Induction of apoptosis in human PC3 cells assessed as decrease in ATP level after 72 hrs by luminescence assay; type: functional, cell-based
HT-29 [25] = test: Induction of apoptosis in human HT-29 cells assessed as decrease in ATP level at 5 uM after 72 hrs by luminescence assay; type: functional; parameters: scale not given: the % may be the effect or the level left
HT-29 [26] = test: Induction of apoptosis in human HT-29 cells assessed as decrease in ATP level after 72 hrs by luminescence assay; type: functional, cell-based
KG-1 [27] = test: Growth inhibition in human KG1 cells expressing p53 gene at 1 uM after 48 hrs by MTT assay; type: functional; conditions: KG-1, 48 h, read-out: GI
KG-1 [28] = test: Induction of apoptosis in human KG1 cells expressing p53 gene assessed as DNA fragmentation at 1 uM after 48 hrs by acridine orange staining method; type: functional
KG-1 [29] = test: Induction of apoptosis in human KG1 cells expressing p53 gene assessed as DNA fragmentation at 0.1 to 1 uM after 48 hrs by acridine orange staining method; type: functional, cell-based
HeLa [30] = test: Induction of apoptosis in human HeLa cells assessed as ATP level at 0.5 uM after 48 hrs by luminometric analysis; type: functional
HeLa [31] = test: Induction of apoptosis in human HeLa cells assessed as ATP level at 1 uM after 72 hrs by acridine orange staining; type: functional
[32] = Induction of apoptosis in mouse MMTV-Wnt-1 cells assessed as cell viability after 72 hrs by DAPI staining based cell counting; type: functional
HeLa [33] = test: Induction of apoptosis in human HeLa cells assessed as ATP level at 0.5 uM by luminometric analysis; type: functional, cell-based; conditions: TDE = time-dependent effect
SK-BR-3 [34] = test: Growth inhibition of estrogen receptor-deficient human SKBR3 cells at 1 uM after 216 hrs by MTT assay relative to control in presence of 5% serum; type: functional; conditions: SK-BR-3, 216 h, read-out: GI
HeLa [35] = test: Induction of apoptosis in human HeLa cells plated on serum free media for 24 hrs assessed as caspase 3 cleavage at 10 uM after 12 hrs; type: functional
A549 [36] = test: Growth inhibition of ERalpha-negative and ERbeta-positive human A549 cells at 10 uM after 72 hrs; type: functional; conditions: A549, 72 h, read-out: GI
SK-BR-3 [37] = test: Growth inhibition of estrogen receptor-deficient human SKBR3 cells at 1 uM after 144 hrs by MTT assay relative to control in presence of 5% serum; type: functional; conditions: SK-BR-3, 144 h, read-out: GI
HT-29 [38] = test: Growth inhibition of ERalpha-negative and ERbeta-positive human HT-29 cells at 10 uM after 72 hrs in presence of 10% FCS; type: functional; conditions: HT-29, 72 h, read-out: GI
HeLa [39] = test: Growth inhibition of human HeLa cells at 1 uM after 96 hrs by MTT assay in presence of 5% serum; type: functional; conditions: read-out: GI

O=C(O)/C=C/c1ccc(-c2ccc(O)c(C34CC5CC(CC(C5)C3)C4)c2)nc1
Activity (SK-BR-3 [1]): tde | Activity (A549 [2]): 30% | Activity (HT-29 [3]): >=40% | Activity (KG-1 [4]): 84% | growth inhibition (GI) (MDA-MB-231 [5]): Dose-dependent effect | Activity (A549 [6]): Active | growth inhibition (GI) (KG-1 [7]): Active | inhibition of growth at 5 µM (KG-1 [8]): 90% | growth inhibition (GI) (MDA-MB-231 [9]): tde | inhibition of growth at 1 µM (MDA-MB-231 [10]): 85% | Activity (MDA-MB-231 [11]): Dose-dependent effect | Activity (HT-29 [12]): <60% | solubility [13]: 7 µM (≈ 2.63 µg/mL) | Activity (MDA-MB-231 [14]): 82% | Activity (SK-BR-3 [15]): 15% | Activity (MDA-MB-231 [16]): 38% | Activity (PC-3 [17]): 30% | Activity (PC-3 [18]): Active | Activity (SK-BR-3 [19]): 1.9% | solubility [20]: 14 µM (≈ 5.26 µg/mL) | Activity (A549 [21]): Dose-dependent effect | inhibition of growth at 1 µM (MDA-MB-231 [22]): 86% | Activity (MDA-MB-231 [23]): tde | Activity (PC-3 [24]): Dose-dependent effect | Activity (HT-29 [25]): 30% | Activity (HT-29 [26]): Dose-dependent effect | inhibition of growth at 1 µM (KG-1 [27]): 85% | Activity (KG-1 [28]): 68% | Activity (KG-1 [29]): Active | Activity (HeLa [30]): >60% | Activity (HeLa [31]): 2.6% | IC50 [32]: 0.019 µM | Activity (HeLa [33]): tde

CC1=C(/C=C/C(C)=C/C=C/C(C)=C/C(=O)O)C(C)(C)CCC1 [TRETINOIN]
inhibition of growth at 1 µM (SK-BR-3 [34]): 24% | Activity (HeLa [35]): 87% | inhibition of growth at 10 µM (A549 [36]): 5% | inhibition of growth at 1 µM (SK-BR-3 [37]): 36% | inhibition of growth at 10 µM (HT-29 [38]): 8% | inhibition of growth at 1 µM (HeLa [39]): 71%
